Patent EP2319515A1, “COCCIDICIDE COMBINATION FOR VETERINARY USE” (Laboratorio Avi-Mex, S.A. De C.V., priority 2008, dated 2010)

Test system: Eimeria tenella sporocytes
Assay: in vitro comparative trials for effectiveness: chicken fibroblasts infected with E. tenella sporocytes
Format: cell-based
Settings: 24 hours of incubation; for cells quantified in 9 fields, X (±SD): CS-3 chicken fibroblasts + E. tenella sporocytes (about 3 per cell), microscope 40 X; for cells quantified in 9 fields, Means mean (±SD): mean of replications A to C, CS-3 chicken fibroblasts + E. tenella sporocytes

Row | Structure (SMILES) | cells quantified in 9 fields, X (±SD) (Replication A) | cells quantified in 9 fields, X (±SD) (Replication B) | cells quantified in 9 fields, X (±SD) (Replication C) | cells quantified in 9 fields, Means mean (±SD)
1 | Cc1cc(-n2c(=O)[nH]c(=O)n(C)c2=O)ccc1Oc1ccc(SC(F)(F)F)cc1 [Example 2] | 999 (12) | 899 (8) | 789 (6) | 895 (105)
2 | CO[C@@H]1[C@@H](OC)[C@H](C)[C@@](O)(CC(=O)O)O[C@H]1[C@H](C)[C@H]1O[C@@]2(CC[C@@](C)([C@H]3CC[C@@](C)([C@@H]4O[C@@H]([C@H]5O[C@](C)(O)[C@H](C)C[C@@H]5C)C[C@@H]4O[C@@H]4C[C@H](OC)[C@@H](OC)[C@H](C)O4)O3)O2)C[C@H](O)[C@H]1C [Example 1, Maduramicine] | 268 (29) | 156 (35) | 239 (21) | 221 (58)
